Experimental data published in patent US10890591B2, “Methods and dose packs for monitoring medication adherence” (Synapse Biosciences, LLC, priority 2016, dated 2021).
Read-outs that look alike come from different tables or passages of the source.

Assays:
[1] = clinical; details: human, in vivo
[2] = clinical; details: in vivo
[3] = human, in vivo
[4] = clinical; details: human, in vivo, Urine Results
[5] = human, Average of Urine Samples
[6] = human, Subject A, Urine Results
[7] = human, Subject B, Urine Results

With CN(C)CCOC(c1ccccc1)c1ccccc1 [Diphenhydramine] the concentration at 1 day [1] was 0 ng/mL, the concentration at 2 day [1] was 0 ng/mL and the concentration at 3 day [1] was 0 ng/mL. It also gave a concentration at 4 day [1] of 0 ng/mL, a concentration at 5 day [1] of 0 ng/mL and a concentration at 6 day [1] of 227 ng/mL. For the same molecule, the concentration at 7 day [1] was 0 ng/mL, the concentration at 8 day [1] was 0 ng/mL and the “detection of marker in saliva across subjects” value [1] was “not detectable in 2 of the 4 subjects”. The “Subject C, Urine Results” value ([2]; human, 1 day) was 0 ng/m, the “Subject D, Urine Results” value ([2]; human, 1 day) was 0 ng/m and the “Subject C, Urine Results” value ([2]; human, 2 day) was 0 ng/m. For the same molecule, the “Subject D, Urine Results” value ([2]; human, 2 day) was 0 ng/m, the “Subject C, Urine Results” value ([2]; human, 3 day) was 0 ng/m and the “Subject D, Urine Results” value ([2]; human, 3 day) was 0 ng/m. The “Subject C, Urine Results” value ([2]; human, 4 day) was 0 ng/m, the “Subject D, Urine Results” value ([2]; human, 4 day) was 0 ng/m and the “Subject C, Urine Results” value ([2]; human, 5 day) was 0 ng/m. For the same molecule, the “Subject D, Urine Results” value ([2]; human, 5 day) was 0 ng/m, the “Subject A, Urine Results” value ([2]; human, 6 day) was 2020000 ng/mL and the “Subject C, Urine Results” value ([2]; human, 6 day) was 618000 ng/m. The “Subject D, Urine Results” value ([2]; human, 6 day) was 585000 ng/m, the “Subject C, Urine Results” value ([2]; human, 7 day) was 144000 ng/m and the “Subject D, Urine Results” value ([2]; human, 7 day) was 185000 ng/m. For the same molecule, the “Subject C, Urine Results” value ([2]; human, 8 day) was 125000 ng/m, the “Subject D, Urine Results” value ([2]; human, 8 day) was 54100 ng/m and the concentration at 1 day [2, 5] was 0 ng/mL. The concentration at 2 day [2, 5] was 0 ng/mL, the concentration at 3 day [2, 5] was 0 ng/mL and the concentration at 4 day [2, 5] was 0 ng/mL. The concentration at 5 day [2, 5] was 0 ng/mL, the concentration at 6 day [2, 5] was 972 µg/mL and the concentration at 7 day [2, 5] was 163 µg/mL. The concentration at 8 day [2, 5] was 88.7 µg/mL, the concentration at 1 day [2, 6] was 0 ng/mL and the concentration at 2 day [2, 6] was 0 ng/mL. The concentration at 3 day [2, 6] was 0 ng/mL, the concentration at 4 day [2, 6] was 0 ng/mL and the concentration at 5 day [2, 6] was 0 ng/mL. For the same molecule, the concentration at 1 day [2, 7] was 0 ng/mL, the concentration at 2 day [2, 7] was 0 ng/mL and the concentration at 3 day [2, 7] was 0 ng/mL. The concentration at 4 day [2, 7] was 0 ng/mL, the concentration at 5 day [2, 7] was 0 ng/mL and the concentration at 6 day [2, 7] was 663 µg/mL. For the same molecule, the concentration at 7 day [2, 7] was 151 µg/mL, the concentration at 8 day [2, 7] was 120 µg/mL and the “course of urine levels relative to dosing” value [2] was “zero before dosing, peaked the day after dosing and slowly decreased over time”. The “course of urine levels relative to dosing” value [3] was “zero before dosing, peaked the day after dosing and slowly decreased over time”, the concentration at 1 day ([4]; Subject A) was 0 ng/mL and the concentration at 2 day ([4]; Subject A) was 0 ng/mL. For the same molecule, the concentration at 3 day ([4]; Subject A) was 0 ng/mL, the concentration at 4 day ([4]; Subject A) was 0 ng/mL and the concentration at 5 day ([4]; Subject A) was 0 ng/mL. The concentration at 6 day ([4]; Subject A) was 481 µg/mL, the concentration at 1 day ([4]; Subject B) was 0 ng/mL and the concentration at 2 day ([4]; Subject B) was 0 ng/mL. The concentration at 3 day ([4]; Subject B) was 0 ng/mL, the concentration at 4 day ([4]; Subject B) was 0 ng/mL and the concentration at 5 day ([4]; Subject B) was 0 ng/mL. It also gave a concentration at 6 day ([4]; Subject B) of 0 µg/mL, a concentration at 7 day ([4]; Subject B) of 0 µg/mL and a concentration at 8 day ([4]; Subject B) of 0 ng/mL. It also gave a concentration at 1 day ([4]; Subject C) of 0 ng/mL, a concentration at 2 day ([4]; Subject C) of 0 ng/mL and a concentration at 3 day ([4]; Subject C) of 0 ng/mL. The concentration at 4 day ([4]; Subject C) was 0 ng/mL, the concentration at 5 day ([4]; Subject C) was 0 ng/mL and the concentration at 6 day ([4]; Subject C) was 151 µg/mL. For the same molecule, the concentration at 7 day ([4]; Subject C) was 214 µg/mL, the concentration at 8 day ([4]; Subject C) was 8840 ng/mL and the concentration at 3 day ([4]; Subject D) was 0 ng/mL. For the same molecule, the concentration at 4 day ([4]; Subject D) was 0 ng/mL, the concentration at 5 day ([4]; Subject D) was 0 ng/mL and the concentration at 6 day ([4]; Subject D) was 684 µg/mL. It also gave a concentration at 8 day ([4]; Subject D) of 75300 ng/mL.
Molecule NC(N)=Nc1nc(CSCCC(N)=NS(N)(=O)=O)cs1 [Famotidine] has a concentration at 1 day [1] of 0 ng/mL, a concentration at 2 day [1] of 0 ng/mL and a concentration at 3 day [1] of 0 ng/mL. The concentration at 4 day [1] was 0 ng/mL, the concentration at 5 day [1] was 5.71 ng/mL and the concentration at 6 day [1] was 0.34 ng/mL. For the same molecule, the concentration at 7 day [1] was 0 ng/mL, the concentration at 8 day [1] was 0 ng/mL and the “Subject C, Urine Results” value ([2]; human, 1 day) was 0 ng/m. For the same molecule, the “Subject D, Urine Results” value ([2]; human, 1 day) was 0 ng/m, the “Subject C, Urine Results” value ([2]; human, 2 day) was 0 ng/m and the “Subject D, Urine Results” value ([2]; human, 2 day) was 0 ng/m. For the same molecule, the “Subject C, Urine Results” value ([2]; human, 3 day) was 0 ng/m, the “Subject D, Urine Results” value ([2]; human, 3 day) was 0 ng/m and the “Subject C, Urine Results” value ([2]; human, 4 day) was 0 ng/m. For the same molecule, the “Subject D, Urine Results” value ([2]; human, 4 day) was 0 ng/m, the “Subject C, Urine Results” value ([2]; human, 5 day) was 968 ng/m and the “Subject D, Urine Results” value ([2]; human, 5 day) was 3820 ng/m. The “Subject C, Urine Results” value ([2]; human, 6 day) was 165 ng/m, the “Subject D, Urine Results” value ([2]; human, 6 day) was 260 ng/m and the “Subject C, Urine Results” value ([2]; human, 7 day) was 122 ng/m. The “Subject D, Urine Results” value ([2]; human, 7 day) was 37.3 ng/m, the “Subject C, Urine Results” value ([2]; human, 8 day) was 78.9 ng/m and the “Subject D, Urine Results” value ([2]; human, 8 day) was 19.4 ng/m. For the same molecule, the concentration at 1 day [2, 5] was 0 ng/mL, the concentration at 2 day [2, 5] was 0 ng/mL and the concentration at 3 day [2, 5] was 0 ng/mL. The concentration at 4 day [2, 5] was 0 ng/mL, the concentration at 5 day [2, 5] was 1560 ng/mL and the concentration at 6 day [2, 5] was 0.203 µg/mL. For the same molecule, the concentration at 7 day [2, 5] was 0.0645 µg/mL, the concentration at 8 day [2, 5] was 0.0432 µg/mL and the concentration at 1 day [2, 6] was 0 ng/mL. It also gave a concentration at 2 day [2, 6] of 0 ng/mL, a concentration at 3 day [2, 6] of 0 ng/mL and a concentration at 4 day [2, 6] of 0 ng/mL. The concentration at 1 day [2, 7] was 0 ng/mL, the concentration at 2 day [2, 7] was 0 ng/mL and the concentration at 3 day [2, 7] was 0 ng/mL. For the same molecule, the concentration at 4 day [2, 7] was 0 ng/mL, the “course of urine levels relative to dosing” value [2] was “zero before dosing, peaked the day after dosing and slowly decreased over time” and the “course of urine levels relative to dosing” value [3] was “zero before dosing, peaked the day after dosing and slowly decreased over time”. It also gave a concentration at 1 day ([4]; Subject A) of 0 ng/mL, a concentration at 2 day ([4]; Subject A) of 0 ng/mL and a concentration at 3 day ([4]; Subject A) of 0 ng/mL. For the same molecule, the concentration at 4 day ([4]; Subject A) was 0 ng/mL, the concentration at 1 day ([4]; Subject B) was 0 ng/mL and the concentration at 2 day ([4]; Subject B) was 0 ng/mL. For the same molecule, the concentration at 3 day ([4]; Subject B) was 0 ng/mL, the concentration at 4 day ([4]; Subject B) was 0 ng/mL and the concentration at 1 day ([4]; Subject C) was 0 ng/mL. It also gave a concentration at 2 day ([4]; Subject C) of 0 ng/mL, a concentration at 3 day ([4]; Subject C) of 0 ng/mL and a concentration at 4 day ([4]; Subject C) of 0 ng/mL. It also gave a concentration at 5 day ([4]; Subject C) of 3830 ng/mL, a concentration at 6 day ([4]; Subject C) of 0.429 µg/mL and a concentration at 7 day ([4]; Subject C) of 0.39 µg/mL. It also gave a concentration at 8 day ([4]; Subject C) of 139 ng/mL, a concentration at 3 day ([4]; Subject D) of 0 ng/mL and a concentration at 4 day ([4]; Subject D) of 0 ng/mL. For the same molecule, the concentration at 5 day ([4]; Subject D) was 5050 ng/mL, the concentration at 6 day ([4]; Subject D) was 1.67 µg/mL and the concentration at 8 day ([4]; Subject D) was 27.8 ng/mL.
